From US20080014211A1, “Methods to elicit, enhance and sustain immune responses against MHC class I-restricted epitopes, for prophylactic and therapeutic purposes” (priority 2006, published 2008)

What was measured:
[1] = system: HPV-16 transformed tumor cells; experiment: Adjunctive therapy in late stage cancer, tumor progression (Example 10); format: in vivo, C57BL/6 mice; details: CTX 30 mg/kg Day 14, 18, immunization Day 20, 24, 34, 38, n=20
Text: Tumor progression (FIG. 11, Panel A) and immune response (FIG. 11, Panel B) was compared to untreated tumor control mice (n=20).

[2] = system: CD4+/CD25+/FoxP3+ T regulatory cells; details: intraperitoneal 100 mg/kg; mice bearing HPV-16 transformed tumors
[3] = system: HPV-16 transformed tumor cells; experiment: Adjunctive therapy: immunotherapy accompanying chemotherapy (Example 16); details: CTX 100 or 30 mg/kg on days 14 and 16
Experimental: C57BL/6 mice are inoculated subcutaneously with 10^5 HPV-16 transformed tumor cells on Day 0, and treated with CTX (100 or 30 mg/kg) on days 14 and 16 or treated by radiotherapy. […] Additional control arms are treated with CTX but not immunized.

[4] = system: HPV-16 transformed tumor cells; experiment: Consolidation therapy: immunotherapy post chemotherapy (Example 15); format: in vivo, C57BL/6 mice; details: CTX 100 or 30 mg/kg on days 14 and 16
Experimental: The animals are rested for 7 days until the number of lymphocytes in the blood reaches normal levels. At that point, all animals show reduced disease or complete remission relative to pre-treatment stage. […] Additional control arms are treated with CTX or radiotherapy but not immunized.

[5] = system: CD4+CD25+Fox P3+ T-regulatory cells; details: tumor bearing mice, one injection 100 mg/kg on Day 46, spleens day 49; p=0.02
Experimental: Control mice received either poyIC or saline.
Mice received one injection of cyclophosphamide (CTX, 100 mg/kg) on days 46 […]. On day 49, spleens were removed from 3 mice in each group and the percentage of CD25^+ and Fox P3^+ cells were calculated within the total CD4^+ population (FIG. 6).

[6] = system: HPV-16 transformed tumor cells; experiment: Adjuvant efficacy: immunotherapy after primary tumor removal (Example 13); format: in vivo, C57BL/6 mice
Experimental: A separate cohort is left untreated and tumors are removed at day 20 using surgery or irradiated using conventional radiotherapy. […] Additional control arms are treated with CTX, radiotherapy or surgery but not immunized.

[7] = system: HPV-16 transformed tumor cells; experiment: Adjunctive therapy, survival (Kaplan-Meier) (Example 11); format: in vivo, C57BL/6 mice; details: two therapeutic cycles; Kaplan-Meier estimates; n=20
Experimental: The effect of adjunctive therapy on survival was also evaluated in C57BL/6 mice inoculated with 10^5 HPV-16 transformed tumor cells as described in Example 10. A second therapeutic cycle was administered in which animals received CTX (30 mg/kg) on Day 46 and 50 (n=20), immunization with E749-57 HPV peptide and dsRNA (25 μg/Day) in bilateral inguinal lymph nodes on Day 52, 56, 65, and 69 (n=20), or were treated with a combination of CTX and immunotherapy (n=20). Kaplan-Meier (product-limit) estimates of the survival function were obtained for each of the four conditions (Control, CTX Only, Immunotherapy Only and CTX/Immunotherapy Combined), as shown in FIG. 12. Log-Rank tests were used to compare the four survival curves.

[8] = system: HPV-16 transformed tumor cells; experiment: Neoadjuvant efficacy: immunotherapy prior to primary tumor treatment (Example 14); format: in vivo, C57BL/6 mice
Experimental: Then mice are treated with CTX (100 mg/kg) starting on day 30 or by radiotherapy, every other day until the animals reach complete remission (FIG. 15). A separate cohort has the tumor removed on day 30 but no treatment with CTX. The animals are then observed for tumor relapse.

Compound: O=P1(N(CCCl)CCCl)NCCCO1 (centres unmarked) [cyclophosphamide]
- tumor regression compared to untreated tumor controls [1]: did not significantly induce tumor regression
- level of T-regs in spleen [2]: reduced
- level of T-regs in the tumor [2]: reduced
- remission after CTX treatment [3]: attain partial remission or complete remission within 20 days after CTX treatment
- remission after treatment [4]: attain partial remission or complete remission within 10 days after treatment
- levels of T-regulatory cells (CD25+ Fox P3+ within total CD4+) in spleen [5]: significantly reduced levels
- remission after primary treatment ([6]; CTX 100 mg/kg from day 14 every other day): attain complete remission
- relapse without follow up immunotherapy ([6]; after complete remission): relapse in a significant number
- median survival time [7]: 68 days
- remission in unimmunized animals ([8]; CTX 100 mg/kg from day 30 every other day): attain partial or complete remission
- relapse in unimmunized animals ([8]; after CTX, radiotherapy or surgery): relapse in a significant number
